# ChEMBL document CHEMBL1127973, “A comparative molecular field analysis derived model of the binding of taxol analogues to microtubules” (Bioorg Med Chem Lett, 1994)
# Target: Tubulin (Homo sapiens) (UniProt P68371+Q9H4B7+P0DPH7+P68366+Q13509+Q71U36+P04350+Q3ZCM7+P07437+P68363+Q9BQE3+Q6PEY2+Q13885+Q9BVA1+Q9BUF5)
# Assay: Binding affinity to microtubules, activity expressed as ID50 of compound/ID50 of paclitaxel
# Format: protein-complex assay
row,ID50 ratio,SMILES
1,2,CC(=O)O[C@H]1C(=O)[C@]2(C)[C@@H](OC(C)=O)C[C@H]3OC[C@@]3(OC(C)=O)[C@H]2[C@H](OC(=O)c2ccccc2)[C@]2(O)C[C@H](OC(=O)[C@H](O)[C@@H](NC(=O)c3ccccc3)c3ccccc3)C(C)=C1C2(C)C
2,0.9,CC(=O)O[C@H]1C(=O)[C@@]2(C)[C@H]([C@H](OC(=O)c3ccccc3)[C@]3(O)C[C@H](OC(=O)[C@H](O)[C@@H](NC(=O)c4ccccc4)c4ccoc4)C(C)=C1C3(C)C)[C@]1(OC(C)=O)CO[C@@H]1C[C@@H]2O
3,4.1,CC(=O)O[C@H]1C(=O)[C@@]2(C)[C@H]([C@H](OC(=O)c3ccccc3)[C@]3(O)C[C@H](OC(=O)C[C@@H](NC(=O)OC(C)(C)C)c4ccccc4)C(C)=C1C3(C)C)[C@]1(OC(C)=O)CO[C@@H]1C[C@@H]2O
4,2,CC(=O)O[C@H]1C(=O)[C@@]2(C)[C@H]([C@H](OC(=O)c3ccccc3)[C@]3(O)C[C@H](OC(=O)[C@H](O)[C@@H](NC(=O)c4ccc(N=[N+]=[N-])cc4)c4ccccc4)C(C)=C1C3(C)C)[C@]1(OC(C)=O)CO[C@@H]1C[C@@H]2O
5,2,CC(=O)O[C@@]12CO[C@@H]1C[C@H](OC(=O)CCCC(=O)O)[C@@]1(C)C(=O)[C@H](OC(=O)CCCC(=O)O)C3=C(C)[C@@H](OC(=O)[C@H](O)[C@@H](NC(=O)OC(C)(C)C)c4ccccc4)C[C@@](O)([C@@H](OC(=O)c4ccccc4)[C@H]21)C3(C)C
6,0.5,CC(=O)O[C@H]1C(=O)[C@@]2(C)[C@H]([C@H](OC(=O)c3ccccc3)[C@]3(O)C[C@H](OC(=O)[C@H](O)[C@@H](NC(=O)c4ccccc4)c4cccnc4)C(C)=C1C3(C)C)[C@]1(OC(C)=O)CO[C@@H]1C[C@@H]2O
7,4.6,CC(=O)O[C@H]1C(=O)[C@@]2(C)[C@H]([C@H](OC(=O)c3ccccc3)[C@]3(O)C[C@H](OC(=O)[C@H](O)[C@@H](NC(=O)c4c(F)c(F)c(N=[N+]=[N-])c(F)c4F)c4ccccc4)C(C)=C1C3(C)C)[C@]1(OC(C)=O)CO[C@@H]1C[C@@H]2O
8,0.5,CC(=O)O[C@@]12CO[C@@H]1C[C@H](O)[C@@]1(C)C(=O)[C@H](O)C3=C(C)[C@@H](OC(=O)[C@H](O)[C@@H](NC(=O)OC(C)(C)C)c4ccccc4)C[C@@](O)([C@@H](OC(=O)c4ccccc4)[C@H]21)C3(C)C (stereo in doubt; 40)
9,0.7,CC(=O)O[C@H]1C(=O)[C@@]2(C)[C@H]([C@H](OC(=O)c3ccccc3)[C@]3(O)C[C@H](OC(=O)[C@H](O)[C@@H](NC(=O)c4ccccc4)c4ccccn4)C(C)=C1C3(C)C)[C@]1(OC(C)=O)CO[C@@H]1C[C@@H]2O
10,1.7,CC(=O)O[C@H]1C(=O)[C@@]2(C)[C@H]([C@H](OC(=O)c3ccccc3)[C@]3(O)C[C@H](OC(=O)[C@H](O)[C@@H](NC(=O)OC(C)(C)C)c4ccco4)C(C)=C1C3(C)C)[C@]1(OC(C)=O)CO[C@@H]1C[C@@H]2O
11,21.2,CC(=O)O[C@H]1C(=O)[C@@]2(C)[C@H]([C@H](OC(=O)c3ccccc3)[C@]3(O)C[C@H](OC(=O)C[C@H](NC(=O)c4ccccc4)c4ccccc4)C(C)=C1C3(C)C)[C@]1(OC(C)=O)CO[C@@H]1C[C@@H]2O
12,> 27,CC(=O)O[C@@]12CO[C@@H]1C[C@H](O)[C@@]1(C)C(=O)[C@H](O)C3=C(C)[C@@H](OC(=O)C[C@@H](O)[C@@H](NC(=O)OC(C)(C)C)c4ccccc4)C[C@@](O)([C@@H](OC(=O)c4ccccc4)[C@H]21)C3(C)C
13,5.6,CC(=O)O[C@H]1C(=O)[C@@]2(C)[C@H]([C@H](OC(=O)c3ccccc3)[C@]3(O)C[C@H](OC(=O)[C@H](O)CNC(=O)c4ccccc4)C(C)=C1C3(C)C)[C@]1(OC(C)=O)CO[C@@H]1C[C@@H]2O
14,3.4,CC(=O)O[C@H]1C(=O)[C@]2(C)[C@@H](OC(=O)c3ccc(C(=[N+]=[N-])C(F)(F)F)cc3)C[C@H]3OC[C@@]3(OC(C)=O)[C@H]2[C@H](OC(=O)c2ccccc2)[C@]2(O)C[C@H](OC(=O)[C@H](O)[C@@H](NC(=O)c3ccccc3)c3ccccc3)C(C)=C1C2(C)C
15,> 27,CC(=O)O[C@@]12CO[C@@H]1C[C@H](O)[C@@]1(C)C(=O)[C@H](O)C3=C(C)[C@@H](OC(=O)C[C@@H](O)[C@@H](NC(=O)c4ccccc4)c4ccccc4)C[C@@](O)([C@@H](OC(=O)c4ccccc4)[C@H]21)C3(C)C
16,0.8,CC(=O)O[C@H]1C(=O)[C@@]2(C)[C@H]([C@H](OC(=O)c3ccccc3)[C@]3(O)C[C@H](OC(=O)[C@H](O)[C@@H](NC(=O)c4ccco4)c4ccccc4)C(C)=C1C3(C)C)[C@]1(OC(C)=O)CO[C@@H]1C[C@@H]2O

row,ID50 ratio,SMILES
1,0.4,CCCCCC(=O)N[C@@H](c1ccccc1)[C@@H](O)C(=O)O[C@H]1C[C@@]2(O)[C@@H](OC(=O)c3ccccc3)[C@@H]3[C@]4(OC(C)=O)CO[C@@H]4C[C@H](O)[C@@]3(C)C(=O)[C@H](OC(C)=O)C(=C1C)C2(C)C
2,2.3,CC(=O)O[C@@]12CO[C@@H]1C[C@H](O)[C@@]1(C)C(=O)[C@H](O)C3=C(C)[C@@H](OC(=O)C[C@H](NC(=O)OC(C)(C)C)c4ccccc4)C[C@@](O)([C@@H](OC(=O)c4ccccc4)[C@H]21)C3(C)C
3,13.2,CC(=O)O[C@H]1C(=O)[C@@]2(C)[C@H]([C@H](OC(=O)c3ccccc3)[C@]3(O)C[C@H](OC(=O)[C@H](O)Cc4ccccc4)C(C)=C1C3(C)C)[C@]1(OC(C)=O)CO[C@@H]1C[C@@H]2O
4,6.4,CC(=O)O[C@H]1C(=O)[C@@]2(C)[C@H]([C@H](OC(=O)c3ccccc3)[C@]3(O)C[C@H](OC(=O)[C@H](C)O)C(C)=C1C3(C)C)[C@]1(OC(C)=O)CO[C@@H]1C[C@@H]2O
5,0.4,CC(=O)O[C@H]1C(=O)[C@@]2(C)[C@H]([C@H](OC(=O)c3ccccc3)[C@]3(O)C[C@H](OC(=O)[C@H](O)[C@@H](NC(=O)c4ccccc4)c4ccncc4)C(C)=C1C3(C)C)[C@]1(OC(C)=O)CO[C@@H]1C[C@@H]2O
6,2,CC(=O)O[C@H]1C(=O)[C@@]2(C)[C@H]([C@H](OC(=O)c3ccccc3)[C@]3(O)C[C@H](OC(=O)[C@H](O)[C@@H](NC(=O)c4ccc([N+](=O)[O-])cc4)c4ccccc4)C(C)=C1C3(C)C)[C@]1(OC(C)=O)CO[C@@H]1C[C@@H]2O
7,15.7,CC(=O)O[C@H]1C(=O)[C@@]2(C)[C@H]([C@H](OC(=O)c3ccccc3)[C@]3(O)C[C@H](OC(=O)[C@@H](O)Cc4ccccc4)C(C)=C1C3(C)C)[C@]1(OC(C)=O)CO[C@@H]1C[C@@H]2O
8,21.4,CC(=O)O[C@H]1C(=O)[C@]2(C)[C@@H](OC(=O)c3ccc(N=[N+]=[N-])cc3)C[C@H]3OC[C@@]3(OC(C)=O)[C@H]2[C@H](OC(=O)c2ccccc2)[C@]2(O)C[C@H](OC(=O)[C@H](O)[C@@H](NC(=O)c3ccccc3)c3ccccc3)C(C)=C1C2(C)C
9,3.5,CC(=O)O[C@H]1C(=O)[C@@]2(C)[C@H]([C@H](OC(=O)c3ccccc3)[C@]3(O)C[C@H](OC(=O)[C@H](O)[C@@H](NC(=O)/C(C)=N/O)c4ccccc4)C(C)=C1C3(C)C)[C@]1(OC(C)=O)CO[C@@H]1C[C@@H]2O
10,0.5,C/C=C(\C)C(=O)N[C@@H](c1ccccc1)[C@@H](O)C(=O)O[C@H]1C[C@@]2(O)[C@@H](OC(=O)c3ccccc3)[C@@H]3[C@]4(OC(C)=O)CO[C@@H]4C[C@H](OC(=O)[C@H](O)[C@@H](O)[C@H](O)CO)[C@@]3(C)C(=O)[C@H](OC(C)=O)C(=C1C)C2(C)C
11,14.1,CC(=O)O[C@H]1C(=O)[C@@]2(C)[C@H]([C@H](OC(=O)c3ccccc3)[C@]3(O)C[C@H](OC(=O)[C@H](O)[C@@H](NC(=O)/C(C)=N/NC(=O)OC(C)(C)C)c4ccccc4)C(C)=C1C3(C)C)[C@]1(OC(C)=O)CO[C@@H]1C[C@@H]2O
12,52,CCC(=O)O[C@H]1C[C@@]2(O)[C@@H](OC(=O)c3ccccc3)[C@@H]3[C@]4(OC(C)=O)CO[C@@H]4C[C@H](O)[C@@]3(C)C(=O)[C@H](OC(C)=O)C(=C1C)C2(C)C
13,4.5,CC(=O)O[C@H]1C(=O)[C@@]2(C)[C@H]([C@H](OC(=O)c3ccccc3)[C@]3(O)C[C@H](OC(=O)[C@@H](O)[C@H](NC(=O)c4ccccc4)c4ccccc4)C(C)=C1C3(C)C)[C@]1(OC(C)=O)CO[C@@H]1C[C@@H]2O
14,0.4,CC(=O)O[C@H]1C(=O)[C@@]2(C)[C@H]([C@H](OC(=O)c3ccccc3)[C@]3(O)C[C@H](OC(=O)[C@H](O)[C@@H](NC(=O)c4ccoc4)c4ccccc4)C(C)=C1C3(C)C)[C@]1(OC(C)=O)CO[C@@H]1C[C@@H]2O
15,5.6,CC(=O)O[C@H]1C(=O)[C@@]2(C)[C@H]([C@H](OC(=O)c3ccccc3)[C@]3(O)C[C@H](OC(=O)[C@@H](C)O)C(C)=C1C3(C)C)[C@]1(OC(C)=O)CO[C@@H]1C[C@@H]2O

row,SMILES,ID50 ratio
1,CC(=O)O[C@H]1C(=O)[C@@]2(C)[C@H]([C@H](OC(=O)c3ccccc3)[C@]3(O)C[C@H](OC(=O)[C@H](O)[C@@H](NC(=O)c4ccc(F)cc4)c4ccccc4)C(C)=C1C3(C)C)[C@]1(OC(C)=O)CO[C@@H]1C[C@@H]2O,1.2
2,C/C=C(\C)C(=O)N[C@@H](c1ccccc1)[C@@H](O)C(=O)O[C@H]1C[C@@]2(O)[C@@H](OC(=O)c3ccccc3)[C@@H]3[C@]4(OC(C)=O)CO[C@@H]4C[C@H](O)[C@@]3(C)C(=O)[C@H](O)C(=C1C)C2(C)C,5
3,CC(=O)O[C@H]1C(=O)[C@@]2(C)[C@H]([C@H](OC(=O)c3ccccc3)[C@]3(O)C[C@H](OC(=O)[C@H](O)[C@@H](NC(=O)OCc4ccccc4)c4ccccc4)C(C)=C1C3(C)C)[C@]1(OC(C)=O)CO[C@@H]1C[C@@H]2O,3.3
4,CC(=O)O[C@@]12CO[C@@H]1C[C@H](O)[C@@]1(C)C(=O)CC3=C(C)[C@@H](OC(=O)[C@H](O)[C@@H](NC(=O)c4ccccc4)c4ccccc4)C[C@@](O)([C@@H](OC(=O)c4ccccc4)[C@H]21)C3(C)C (stereo in doubt; 17),143
5,CC(=O)O[C@@]12CO[C@@H]1C[C@H](O)[C@@]1(C)C(=O)CC3=C(C)[C@@H](OC(=O)[C@H](O)[C@@H](NC(=O)c4ccccc4)c4ccccc4)C[C@@](O)([C@@H](OC(=O)c4ccccc4)[C@H]21)C3(C)C (stereo in doubt; 19),106
6,C/C=C(\C)C(=O)N[C@@H](c1ccccc1)[C@@H](O)C(=O)O[C@H]1C[C@@]2(O)[C@@H](OC(=O)c3ccccc3)[C@@H]3[C@]4(OC(C)=O)CO[C@@H]4C[C@H](O)[C@@]3(C)C(=O)[C@H](OC(C)=O)C(=C1C)C2(C)C,1.5
